Key:
[1] = reported, Patent Document 1; cited from earlier work
[2] = reported, Non-Patent Document 1; cited from earlier work
[3] = biological target: T1, pig-derived pancreatic lipase II (Sus scrofa, UniProt P00591); assay: Pancreatic lipase activity inhibition (triolein substrate, free fatty acids by NEFA C-Test); format: biochemical; conditions: 8PN final concentration 1.0, 2.0, 4.0, 7.0 or 10.0 mg/mL; 37° C., 30 minutes; FIG. 12
T1 construct: purchased Sigma
T1 sequence (P00591 1-450): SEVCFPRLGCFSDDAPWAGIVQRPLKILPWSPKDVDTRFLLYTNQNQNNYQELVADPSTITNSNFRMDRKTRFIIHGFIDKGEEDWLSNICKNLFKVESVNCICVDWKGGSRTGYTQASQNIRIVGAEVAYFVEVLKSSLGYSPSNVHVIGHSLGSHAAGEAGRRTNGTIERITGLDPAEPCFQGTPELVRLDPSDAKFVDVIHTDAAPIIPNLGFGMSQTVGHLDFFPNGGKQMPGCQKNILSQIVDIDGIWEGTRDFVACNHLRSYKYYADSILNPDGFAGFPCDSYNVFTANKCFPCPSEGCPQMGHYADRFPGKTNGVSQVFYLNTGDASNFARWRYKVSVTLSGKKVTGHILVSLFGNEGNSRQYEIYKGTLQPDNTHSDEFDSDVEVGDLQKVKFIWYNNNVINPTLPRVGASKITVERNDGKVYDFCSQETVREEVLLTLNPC
Description: An enzyme solution was prepared by dissolving pig-derived pancreatic lipase II (available from Sigma) in a 100 mM Tris-HCl buffer solution (pH 7.0) to make a final concentration of 250 μg/mL. In addition, 80 mg of triolein, 10 mg of lecithin, and 5 mg of sodium cholate were dissolved in 9 mL of a 100 mM tris-HCl buffer solution (pH 7.0), and the mixture was subjected to ultrasonic treatment for 10 minutes to prepare a substrate solution that was a homogeneous suspension. […] The reaction was stopped by a heating treatment at 100° C. for 2 minutes, and the amount of free fatty acids was measured through absorbance at a wavelength of 550 nm using the NEFA C-Test Wako Kit (available from Fujifilm Wako Pure Chemical Corporation). […]
Also note that a control was prepared in the same manner as described above with the exception that DMSO was used instead of 8PN. […] The lipase activity inhibition rate was calculated by the following calculation equation (1). Lipase activity inhibition rate (%)={1−((B−A)/(C−A))}×100 (1) • A: Absorbance of blank • B: Absorbance of test reaction solution • C: Absorbance of control

C57BL/6 male mice [4] = assay: Body weight and adipose tissue fat weights of mice fed normal or high-fat diet with 8PN for 8 weeks; format: in vivo; conditions: for increase in the fat weight of the subcutaneous adipose tissue: vs Group 4, FIG. 2; for increase in the fat weight of the brown adipose tissue: vs Group 4, FIG. 3; for increase in the fat weight of the mesenteric adipose tissue: vs Group 4, FIG. 4; for increase in the fat weight of the perirenal adipose tissue: vs Group 4, FIG. 5; for increase in the fat weight of the epididymal adipose tissue: vs Group 4, FIG. 6; for increase in the fat weight of the white adipose tissue: vs Group 4, total of adipose tissue other than brown, FIG. 7
Description: (§1) C57BL/6 male mice (available from Japan SLC, Inc.) were arranged into the following six groups of six mice each. Note that, 8-prenylnaringenin (may be described herein as 8PN) was used as the prenylflavonoid of the present embodiment. • (Group 1) Group that ingested a normal diet without the addition of 8PN • (Group 2) Group that ingested a normal diet with the addition of 8PN (final concentration: 0.0005%) • (Group 3) Group that ingested a normal diet with the addition of 8PN (final concentration: 0.005%) • (Group 4) Group that ingested a high-fat diet without the addition of 8PN • (Group 5) Group that ingested a high-fat diet with the addition of 8PN (final concentration: 0.0005%) • (Group 6) Group that ingested a high-fat diet with the addition of 8PN addition (final concentration: 0.005%)
(§2) AIN-93M feed was used as the normal diet (control diet), and AIN-93M feed containing 30% lard was used as the high-fat diet. These feeds were mixed with 8PN for Group 2, Group 3, Group 5 and Group 6.
(§3) The mice were each raised in individual cages, were allowed to freely consume each feed and deionized water, and were raised for 8 weeks. The rearing environment included a temperature of 22±2° C., humidity without artificial control, and light-dark cycles alternated every 12 hours. After 8 weeks, the mice were slaughtered by drawing blood from the heart under co-anesthesia of sevoflurane and somnopentyl, after which each mouse was weighed to measure the body weight. Next, subcutaneous adipose tissue, brown adipose tissue, mesenteric adipose tissue, perirenal adipose tissue, and epididymal adipose tissue were extracted from each mouse, and the fat weight in each tissue was measured by weighing with a scale. The total weight of adipose tissue other than the brown adipose tissue was calculated as the weight of white adipose tissue from the extracted fat.

C57BL/6 male mice [5] = assay: Plasma glucose, cholesterol and insulin of mice fed high-fat diet with 8PN; format: in vivo; conditions: 8 weeks; for increase in the blood concentration of glucose: vs Group 4, FIG. 8; for increase in the blood concentration of cholesterol: vs Group 4, FIG. 9; for increase in the blood concentration of insulin: vs Group 4, FIG. 10
Description: as §1, §2, §3
Example 2 was carried out in the same manner as Example 1 up to the slaughtering of the mice. Blood was drawn from each mouse at the time of slaughtering and was centrifuged at 5000 rpm for 10 minutes, and plasma was obtained from the supernatant. The amount of glucose was measured using the Glucose CII Test Wako Kit (available from Fujifilm Wako Pure Chemical Corporation), and the amount of insulin was measured using the LBIS (trade name) Mouse Insulin ELISA Kit (RTU) (available from Fujifilm Wako Pure Chemical Corporation). In addition, the amount of cholesterol was measured using the LabAssay Cholesterol Kit (available from Fujifilm Wako Pure Chemical Corporation).

C57BL/6 male mice [6] = assay: Thigh muscle weight of mice fed normal or high-fat diet with 8PN; format: in vivo; conditions: 8 weeks, p<0.05, FIG. 11
Description: as §1, §2, §3
Example 3 was implemented in the same manner as Example 1 up to the slaughtering of the mice. At the time of the slaughtering, the thigh muscles were removed from each mouse, and the weight of each muscle was measured by weighing with a scale.

[7] = reported, Patent Document 2; cited from earlier work
SREBP = conditions: in rats; reported, Non-Patent Document 4; cited from earlier work
3T3-L1 cells = conditions: reported, Non-Patent Document 2; cited from earlier work
rats = conditions: administration to rats; reported, Non-Patent Document 3; cited from earlier work
[8] = Group 5: high-fat diet with 8PN 0.0005%
[9] = Group 6: high-fat diet with 8PN 0.005%

CC(C)=CCc1c(O)cc(O)c2c1O[C@H](c1ccc(O)cc1)CC2=O [8PN, 8-prenylnaringenin]
angiogenesis inhibition [1]: exhibits
estrogen activity [2]: exhibits
lipase activity inhibition rate [3]: increased in a manner dependent on the concentration of 8PN
increase in body weight (C57BL/6 male mice [4]; Group 5: high-fat diet with 8PN 0.0005%, vs Group 4 (high-fat diet without 8PN), FIG. 1): suppressed
increase in the fat weight of the subcutaneous adipose tissue (C57BL/6 male mice [4]; [8]): suppressed
increase in the fat weight of the brown adipose tissue (C57BL/6 male mice [4]; [8]): suppressed
increase in the fat weight of the mesenteric adipose tissue (C57BL/6 male mice [4]; [8]): suppressed
increase in the fat weight of the perirenal adipose tissue (C57BL/6 male mice [4]; [8]): suppressed
increase in the fat weight of the epididymal adipose tissue (C57BL/6 male mice [4]; [8]): suppressed
increase in the fat weight of the white adipose tissue (C57BL/6 male mice [4]; [8]): suppressed
increase in body weight (C57BL/6 male mice [4]; Group 6: high-fat diet with 8PN 0.005%, vs Group 4, FIG. 1): suppressed
increase in the fat weight of the subcutaneous adipose tissue (C57BL/6 male mice [4]; [9]): suppressed
increase in the fat weight of the brown adipose tissue (C57BL/6 male mice [4]; [9]): suppressed
increase in the fat weight of the mesenteric adipose tissue (C57BL/6 male mice [4]; [9]): suppressed
increase in the fat weight of the perirenal adipose tissue (C57BL/6 male mice [4]; [9]): suppressed
increase in the fat weight of the epididymal adipose tissue (C57BL/6 male mice [4]; [9]): suppressed
increase in the fat weight of the white adipose tissue (C57BL/6 male mice [4]; [9]): suppressed
increase in the blood concentration of glucose (C57BL/6 male mice [5]; [8]): suppressed
increase in the blood concentration of cholesterol (C57BL/6 male mice [5]; [8]): suppressed
increase in the blood concentration of insulin (C57BL/6 male mice [5]; [8]): suppressed
increase in the blood concentration of glucose (C57BL/6 male mice [5]; [9]): suppressed
increase in the blood concentration of cholesterol (C57BL/6 male mice [5]; [9]): suppressed
increase in the blood concentration of insulin (C57BL/6 male mice [5]; [9]): suppressed
weight of the thigh muscle (C57BL/6 male mice [6]; Group 2: normal diet with 8PN 0.0005%, vs Group 1 (normal diet without 8PN)): increased
weight of the thigh muscle (C57BL/6 male mice [6]; Group 3: normal diet with 8PN 0.005%, vs Group 1): increased
weight of the thigh muscle (C57BL/6 male mice [6]; Group 5: high-fat diet with 8PN 0.0005%, vs Group 4): increased
weight of the thigh muscle (C57BL/6 male mice [6]; Group 6: high-fat diet with 8PN 0.005%, vs Group 4): increased
suppression of muscle disuse atrophy [7]: exhibits

COc1cc(O)c(CC=C(C)C)c(O)c1C(=O)/C=C/c1ccc(O)cc1 [xanthohumol]
SREBP activation and lipid synthesis (SREBP): suppresses
differentiation of 3T3-L1 cells (3T3-L1 cells): has an effect of suppressing
lipid synthesis (3T3-L1 cells): an effect of suppressing
weight gain (rats): suppressed

Reference: patent US12485105B2, “Composition for suppressing obesity” (DAICEL CORPORATION, priority 2019, dated 2025)
